Here are results for nine compounds from patent US9453842B2, “Inhibition of peroxidase enzymatic activity” (Roche Molecular Systems, Inc., priority 2006, dated 2016).

The target in experiment [1] is T1, HRP (Armoracia rusticana, UniProt P00433).
T1 sequence (P00433 31-338): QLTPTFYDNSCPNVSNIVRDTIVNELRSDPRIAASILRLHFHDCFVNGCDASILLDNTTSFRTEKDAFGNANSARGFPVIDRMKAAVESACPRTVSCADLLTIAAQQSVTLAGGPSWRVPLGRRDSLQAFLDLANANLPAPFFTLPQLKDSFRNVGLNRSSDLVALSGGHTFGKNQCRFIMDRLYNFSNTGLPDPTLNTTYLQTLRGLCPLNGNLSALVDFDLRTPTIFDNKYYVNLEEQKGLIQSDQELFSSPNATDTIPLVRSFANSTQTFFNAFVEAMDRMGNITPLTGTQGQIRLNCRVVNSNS
The experiment is described as follows: Inhibition of 1 mU of HRP activity using heavy metal salts and other compounds as stop reagents (ABTS, 96-well plate). Conditions: 1 mU HRP; for Absorbance at 405 nm: higher concentration of Table 1.

For experiment [2], the system named is horseradish peroxidase (HRP). The experiment is described as follows: Inhibition of ABTS turnover catalyzed by a low amount of HRP (sandwich ELISA, non-induced Jurkat cell lysate). The experiment is classed as biochemical, horseradish (Armoracia rusticana). Conditions: SDS 1% or 5%, high concentrations of oxalic acid or sulfuric acid. On the procedure:
FIG. 1, A and B: inhibition of ABTS turnover catalyzed by a low amount of HRP (detection of a low amount of mono- and oligosomes in Jurkat cells; further details are given in Example 1). The ordinate indicates absorbance. Groups of bars represent comparative measurements at time points after the addition of stop reagents as indicated: (‡)—control, ABTS solution incubated without HRP, no stop reagent added; (a) to (k)—ABTS solution incubated with HRP and subsequently mixed with stop reagent as indicated: […] Jurkat cells were cultured and subsequently divided into two culture dishes. In one dish the cells were treated with 1 μg/ml CAM (Camptothecin) to induce apoptosis, thereby leading to the formation of mono and oligonucleosomes, the target antigen. After an incubation period of 4 hours the cells of both dishes were harvested separately by centrifugation, lysed by the detergent contained in the Cell Death Detection ELISA Plus (Roche Diagnostics GmbH, Mannheim, Germany; Catalog No. 1920685), and frozen. The mono and oligonucleosomes consisting of DNA and histones H2A, H2B, H3 and H4 were detected in thawed cell homogenate by way of a sandwich ELISA. Antigen was captured with a first monoclonal antibody against histone from the Cell Death Detection ELISA Plus kit. The antibody was coated onto the walls of a 96-well microplate. The detection antibody was a DNA-specific polyclonal antibody conjugated with horseradish peroxidase. Non-induced and CAM-induced Jurkat cells yielded low and high amounts of target antigen, thereby leading to low and high absolute amounts of horseradish peroxidase enzymatic activity in the respective wells. Into each well of the 96-well microplate an aliquot of 100 μl of ABTS Solution (Roche Diagnostics GmbH, Mannheim, Germany; Roche Applied Science, product no. 11684302001) was added. After an incubation for 8 minutes at room temperature, 100 μl of either distilled water or a stop reagent as indicated in the legend to FIG. 1 was added.
On the technique in general: An ELISA detects its analyte on a solid surface through an enzyme-linked reagent.

In experiment [3] the test system is horseradish peroxidase (HRP). The experiment is described as follows: Inhibition of ABTS turnover catalyzed by a high amount of HRP (sandwich ELISA, CAM-induced Jurkat cell lysate). The experiment is classed as biochemical, horseradish (Armoracia rusticana). The protocol: FIG. 2, A and B: inhibition of ABTS turnover catalyzed by a high amount of HRP detection of a high amount of mono- and oligosomes in Jurkat cells; further details are given in Example 1. All other designations are the same as in FIG. 1. Jurkat cells were cultured and subsequently divided into two culture dishes. In one dish the cells were treated with 1 μg/ml CAM (Camptothecin) to induce apoptosis, thereby leading to the formation of mono and oligonucleosomes, the target antigen. After an incubation period of 4 hours the cells of both dishes were harvested separately by centrifugation, lysed by the detergent contained in the Cell Death Detection ELISA Plus (Roche Diagnostics GmbH, Mannheim, Germany; Catalog No. 1920685), and frozen. The mono and oligonucleosomes consisting of DNA and histones H2A, H2B, H3 and H4 were detected in thawed cell homogenate by way of a sandwich ELISA. Antigen was captured with a first monoclonal antibody against histone from the Cell Death Detection ELISA Plus kit. The antibody was coated onto the walls of a 96-well microplate. The detection antibody was a DNA-specific polyclonal antibody conjugated with horseradish peroxidase. Non-induced and CAM-induced Jurkat cells yielded low and high amounts of target antigen, thereby leading to low and high absolute amounts of horseradish peroxidase enzymatic activity in the respective wells. […]

For experiment [4], the system named is HRP. The experiment is described as follows: Inhibition of 1 mU of HRP activity using acidified SDS solution as stop reagent (ABTS). Conditions: acidification of the reaction mixture to pH about 2.5 to 4.2; SDS final concentration between 0.25% and 2.5% weight by volume. The format is biochemical, horseradish (Armoracia rusticana). The protocol:
A solution of 5% [w/v] sodium dodecyl sulfate acidified with 0.25 M hydrochloric acid was used as a stop reagent to inhibit 1 mU peroxidase enzymatic activity of HRP. […] 100 μl of stop reagent were added.
Another experiment was performed in which two different SDS concentrations, 5% and 0.5% [w/v] in an acidified solution were compared.

Setting [5] is: Table 2b, 6 min, stop reagent added after 8 min incubation.
The mark [6] stands for this setting: Table 2b, 9 min, stop reagent added after 8 min.
The mark [7] stands for this setting: Table 2b, 15 min, stop reagent added after 8 min.
The mark [8] stands for this setting: Table 2b, 30 min, stop reagent added after 8 min.
Setting [9] is: Table 2b, 45 min, stop reagent added after 8 min.
Setting [10] is: Table 2b, 60 min, stop reagent added after 8 min.
[11] abbreviates: Table 2b, 180 min, stop reagent added after 8 min.

As to `[Cl][Ni][Cl]` [(ix), Nickel (II) chloride], the “Absorbance at 405 nm” value in experiment [1] (setting [5]) was found to be 1.175; in experiment [1] (setting [6]) it was 2.241; in experiment [1] (setting [7]) it was 2.999; in experiment [1] (setting [8]) it was 3.719; in experiment [1] (setting [9]) it was 3.999; in experiment [1] (setting [10]) it was 3.715. Besides, in experiment [1] (setting [11]), the “Absorbance at 405 nm” value came to 3.999.
Consider `[Na+].[Na+].[Na+].[O]=[V]([O-])([O-])[O-]` [(vii), Sodium orthovanadate], for which the “Decoloration of the dye” value in experiment [1] (ABTS) is “decoloration of the dye”. For the same compound, the “Absorbance at 405 nm” value in experiment [1] (setting [5]) turned out to be 1.173; in experiment [1] (setting [6]) it was 0.115; in experiment [1] (setting [7]), 0.096; in experiment [1] (setting [8]), 0.089; in experiment [1] (setting [9]), 0.088; in experiment [1] (setting [10]) it was 0.092. In addition, the “Absorbance at 405 nm” value in experiment [1] (setting [11]) was determined as 0.100.
On to `[F-].[Na+]` [(viii), NaF], for which, in experiment [1] (ABTS), the “Inhibition of HRP (in words)” value is on record as “affected inhibition, however only partially”. For the same compound, the “Absorbance at 405 nm” value in experiment [1] (setting [5]) was 1.176; in experiment [1] (setting [6]) it was 1.343; in experiment [1] (setting [7]), 1.424; in experiment [1] (setting [8]), 1.572; in experiment [1] (setting [9]) it was 1.721; in experiment [1] (setting [10]) it was 1.818. Besides, in experiment [1] (setting [11]), the “Absorbance at 405 nm” value was 2.107.
On to `NC(=O)C(=O)[O-].[Na+]` [(xi), Sodium Oxamate], for which the “Absorbance at 405 nm” value in experiment [1] (setting [5]) stood at 1.182; in experiment [1] (setting [6]), 1.776; in experiment [1] (setting [7]), 2.525; in experiment [1] (setting [8]), 3.091; in experiment [1] (setting [9]), 3.097; in experiment [1] (setting [10]), 3.095. The “Absorbance at 405 nm” value in experiment [1] (setting [11]) is listed as 2.865.
For `N#C[S-].[K+]` [(xii), KSCN], the “Decoloration of the dye” value in experiment [1] (ABTS) is “decoloration of the dye”. Also, the “Absorbance at 405 nm” value is listed as 1.179 in experiment [1] (setting [5]); 1.207 in experiment [1] (setting [6]); 1.290 in experiment [1] (setting [7]); 1.201 in experiment [1] (setting [8]); 1.086 in experiment [1] (setting [9]); 0.989 in experiment [1] (setting [10]). For the same compound, the “Absorbance at 405 nm” value in experiment [1] (setting [11]) is 0.849.
For the compound `[Na+].[OH-]` [(xiii), NaOH], the “Decoloration of the dye” value in experiment [1] (ABTS) is reported as “decoloration of the dye”. Moreover, the “Absorbance at 405 nm” value was 1.036 in experiment [1] (Table 2a, 6 min, stop reagent added after 8 min incubation); 0.878 in experiment [1] (Table 2a, 9 min, stop reagent added after 8 min); 0.027 in experiment [1] (Table 2a, 15 min, stop reagent added after 8 min); 0.027 in experiment [1] (Table 2a, 30 min, stop reagent added after 8 min); 0.027 in experiment [1] (Table 2a, 45 min, stop reagent added after 8 min); 0.027 in experiment [1] (Table 2a, 60 min, stop reagent added after 8 min). Besides, the “Absorbance at 405 nm” value in experiment [1] (Table 2a, 180 min, stop reagent added after 8 min) was determined as 0.026.
For the compound `CCCCCCCCCCCCOS(=O)(=O)[O-].[Na+]` [SDS, sodium dodecyl sulfate], the “Inhibition of the reaction (FIG. 1)” value in experiment [2] is on record as “complete inhibition”. In addition, the “Inhibition of the high amount of HRP activity (FIG. 2)” value in experiment [3] is reported as “not able to inhibit completely”. In experiment [4], the “Inhibiting peroxidase enzymatic activity (in words)” value is given as “very effective”.
`O=C(O)C(=O)O` [oxalic acid]: the “Inhibition of the reaction (FIG. 1)” value in experiment [2] was “complete inhibition”. Also, the “Inhibition of the high amount of HRP activity (FIG. 2)” value in experiment [3] is listed as “not able to inhibit completely”.
With `O=S(=O)(O)O` [sulfuric acid], in experiment [2], the “Inhibition of the reaction (FIG. 1)” value is “complete inhibition”.
